Measured values taken from patent US20250360145A1, “CSF-1R INHIBITORS AND USES THEREOF” (Myrobalan Therapeutics, Inc., priority 2022, published 2025).
pEC50, pIC50: −log10 of the molar value. Where two headings read alike, the source gives them in different places.

Experiments:
[1] = target: CSF-1R (Homo sapiens (Human), UniProt P07333); experiment: Biochemical HTRF kinase assay, CSF-1R; conditions: Table 2; recombinant human CSF-1R;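 further: enzyme incubated with inhibitor plus a substrate and ATP mix for one hour at room temperature before HTRF detection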
[2] = system: EOC2 cell; experiment: Cell proliferation assay, EOC2; assay type: cell-based, mouse; conditions: for pEC50: EOC2 cells, 72 hours treatment, read-out: ECO2 EC50
[3] = system: Ba/F3_CSF-1R (stably expressing human CSF-1R kinase); experiment: Cell proliferation assay, Ba/F3_CSF-1R; assay type: cell-based; conditions: for pEC50: Ba/F3_CSF-1R cells, 72 hours treatment, read-out: CSF-1R BaF3 EC50; for EC50: read-out: CSF-1R BaF3 EC50 (nM)

Sequence of CSF-1R (P07333 20-972): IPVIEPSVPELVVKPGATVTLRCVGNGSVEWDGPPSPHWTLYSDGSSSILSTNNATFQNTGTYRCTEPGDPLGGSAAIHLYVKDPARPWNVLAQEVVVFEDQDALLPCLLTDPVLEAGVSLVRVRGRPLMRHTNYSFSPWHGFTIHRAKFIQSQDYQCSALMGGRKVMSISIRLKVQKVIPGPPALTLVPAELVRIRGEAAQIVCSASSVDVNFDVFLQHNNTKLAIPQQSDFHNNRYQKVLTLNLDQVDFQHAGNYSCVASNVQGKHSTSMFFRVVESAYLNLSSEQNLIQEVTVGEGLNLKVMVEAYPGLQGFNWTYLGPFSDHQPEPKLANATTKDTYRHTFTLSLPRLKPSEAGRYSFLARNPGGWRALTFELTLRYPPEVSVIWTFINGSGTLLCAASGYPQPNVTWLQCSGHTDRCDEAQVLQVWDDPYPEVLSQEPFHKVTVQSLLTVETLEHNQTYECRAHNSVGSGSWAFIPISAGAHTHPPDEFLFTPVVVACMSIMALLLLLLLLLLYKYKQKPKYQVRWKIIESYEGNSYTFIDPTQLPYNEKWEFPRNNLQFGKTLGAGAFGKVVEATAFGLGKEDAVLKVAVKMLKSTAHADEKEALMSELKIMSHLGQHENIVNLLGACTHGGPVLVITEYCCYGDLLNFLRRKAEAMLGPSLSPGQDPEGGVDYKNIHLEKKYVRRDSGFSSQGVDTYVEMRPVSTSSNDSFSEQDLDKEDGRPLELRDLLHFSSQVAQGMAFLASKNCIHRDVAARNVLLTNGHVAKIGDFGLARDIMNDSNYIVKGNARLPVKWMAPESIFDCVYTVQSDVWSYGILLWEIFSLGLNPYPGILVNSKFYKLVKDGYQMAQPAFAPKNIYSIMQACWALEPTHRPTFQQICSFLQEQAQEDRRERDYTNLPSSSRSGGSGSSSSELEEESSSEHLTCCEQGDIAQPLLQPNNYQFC

Row | SMILES | pIC50 [1] | pEC50 ([2]; Mus musculus, 72 h) | pEC50 ([3]; BaF3, 72 h) | EC50 ([3]; BaF3, 72 h) | EC50 ([2]; Mus musculus, 72 h, read-out: ECO2 EC50 (nM)) | pEC50 [2] | pEC50 [3]
1 | COc1cnc2c(Cc3cnc(OCc4cc5n(n4)C(C)COC5)c(OC)c3)ccnc2c1 (stereo not drawn) [Example 103] | 8.72 | 7.59 | 7.38 | – | – | – | –
2 | COc1cnc2c(Cc3cnc(OCc4cc(C(C)C)nn4C)c(OC)c3)ccnc2c1 [Example 106] | 8.59 | 7.12 | 7.02 | – | – | – | –
3 | COc1cnc2c(Cc3cnc(OCc4cc5n(n4)CCCOC5)c(OC)c3)ccnc2c1 [Example 107] | 8.80 | 7.43 | 7.18 | – | – | – | –
4 | COc1cnc2c(Cc3cnc(OCc4cc5n(n4)CC4(CC4)C5)c(OC)c3)ccnc2c1 [Example 108] | 8.72 | 7.63 | 7.42 | – | – | – | –
5 | COc1cnc2c(Cc3cnc(OCc4cc(C5CC5)n(C)n4)c(OC)c3)ccnc2c1 [Example 109] | 8.96 | 7.36 | 6.99 | – | – | – | –
6 | COc1cnc2c(Cc3cnc(OCc4cc5n(n4)C[C@H](C(F)(F)F)C5)c(OC)c3)ccnc2c1 [Example 110] | 8.47 | 7.44 | 6.96 | – | – | – | –
7 | COc1cnc2c(Cc3cnc(OCc4cc5n(n4)[C@H]4C[C@H]4C5)c(OC)c3)ccnc2c1 [Example 111] | 8.66 | 7.76 | 7.46 | – | – | – | –
8 | COc1cnc2c(Cc3cnc(OCc4cc(C(C)(C)OC)n(C)n4)c(OC)c3)ccnc2c1 [Example 113] | 7.91 | 6.84 | 6.46 | – | – | – | –
9 | COc1cnc2c(Cc3cnc(OCc4cccc(C(=O)N(C)C)n4)c(OC)c3)ccnc2c1 [Example 117] | 7.68 | 6.77 | 6.46 | – | – | – | –
10 | COc1cnc2c(Cc3cnc(OCc4cccc(N5CCC5)n4)c(OC)c3)ccnc2c1 [Example 118] | 8.44 | 7.46 | 7.01 | – | – | – | –
11 | COc1cnc2c(Cc3cnc(OCc4cc5n(n4)[C@@H]4C[C@@H]4C5)c(OC)c3)ccnc2c1 [Example 120] | 8.72 | 7.74 | 7.36 | – | – | – | –
12 | COc1cnc2c(Cc3cnc(OCc4ccc5cnn(C)c5n4)c(OC)c3)ccnc2c1 [Example 122] | 7.85 | 6.97 | 6.88 | – | – | – | –
13 | COc1cnc2c(Cc3cnc(OCc4cccc(N(C)C(C)=O)n4)c(OC)c3)ccnc2c1 [Example 123] | 7.28 | 7.11 | 6.89 | – | – | – | –
14 | COc1cnc2c(Cc3cnc(OCc4cccn(C)c4=O)c(OC)c3)ccnc2c1 [Example 124] | 6.50 | 6.35 | < 6.00 | – | – | – | –
15 | COc1cnc2c(Cc3cnc(OCc4cccc(=O)n4C)c(OC)c3)ccnc2c1 [Example 125] | 6.28 | 6.02 | < 6.00 | – | – | – | –
16 | COc1ccc(COc2ncc(Cc3ccnc4cc(N5CCC(OC)C5)cnc34)cc2OC)nc1 (stereo not drawn) [Example 126] | 7.91 | 8.62 | 8.42 | – | – | – | –
17 | COc1ccc(COc2ncc(Cc3ccnc4cc(N5CCC5)cnc34)cc2OC)nc1 [Example 127] | 7.65 | 7.60 | 7.55 | – | – | – | –
18 | COc1cnc2c(Cc3cnc(OCc4cc5n(n4)C[C@@H](F)C5)c(OC)c3)ccnc2c1 [Example 128] | 8.31 | 8.31 | 7.67 | – | – | – | –
19 | COc1cnc2c(Cc3cnc(OCc4ccc5nccn5n4)c(OC)c3)ccnc2c1 [Example 129] | 7.37 | 6.78 | 6.51 | – | – | – | –
20 | COc1ccc(COc2ncc(Cc3ccnc4cc(-c5cnn(C)c5)cnc34)cc2OC)nc1 [Example 130] | 8.80 | 8.82 | 8.70 | – | – | – | –
21 | COc1cnc2c(Cc3cnc(OCc4nc5cccnc5n4C)c(OC)c3)ccnc2c1 [Example 132] | 6.06 | < 6.00 | < 6.00 | – | – | – | –
22 | COc1ccc(COc2ncc(Cc3ccnc4cc(C(=O)N(C)C)cnc34)cc2OC)nc1 [Example 133] | 7.23 | 6.51 | 6.35 | – | – | – | –

Row | SMILES | pIC50 [1] | pEC50 ([2]; Mus musculus, 72 h) | pEC50 ([3]; BaF3, 72 h) | EC50 ([3]; BaF3, 72 h) | EC50 ([2]; Mus musculus, 72 h, read-out: ECO2 EC50 (nM)) | pEC50 [2] | pEC50 [3]
23 | COc1ccc(COc2ncc(Cc3ccnc4cc(N5CCNCC5)cnc34)cc2OC)nc1 [Example 135] | 7.65 | 7.18 | 7.59 | – | – | – | –
24 | COc1ccc(COc2ncc(Cc3ccnc4cc(-c5cnc(C)s5)cnc34)cc2OC)nc1 [Example 138, 5-(8-((5-methoxy-6-((5-methoxypyridin-2-yl)methoxy)pyridin-3-yl)methyl)-1,5-naphthyridin-3-yl)-2-methylthiazole] | 7.90 | 8.66 | – | 1.8 nM | – | – | –
25 | COc1ccc(COc2ncc(Cc3ccnc4cc(-c5ccccn5)cnc34)cc2OC)nc1 [Example 139] | 7.95 | 8.10 | 8.06 | – | – | – | –
26 | COc1ccc(COc2ncc(Cc3ccnc4cc(-c5cccnc5)cnc34)cc2OC)nc1 [Example 140, 8-((5-methoxy-6-((5-methoxypyridin-2-yl)methoxy)pyridin-3-yl)methyl)-3-(pyridin-3-yl)-1,5-naphthyridine] | 8.03 | 7.97 | – | 9.8 nM | – | – | –
27 | COc1ccc(COc2ncc(Cc3ccnc4cc(N5CC(OC)C5)cnc34)cc2OC)nc1 [Example 141] | 8.15 | 8.43 | 8.24 | – | – | – | –
28 | COc1ccc(COc2ncc(Cc3ccnc4cc(-n5cc(C)cn5)cnc34)cc2OC)nc1 [Example 142] | 7.86 | 8.32 | 8.14 | – | – | – | –
29 | COc1ccc(COc2ncc(Cc3ccnc4cc(-n5ccnc5C)cnc34)cc2OC)nc1 [Example 143] | 7.80 | 7.24 | 7.34 | – | – | – | –
30 | COc1ccc(COc2ncc(Cc3ccnc4cc(N5CC(F)(F)C5)cnc34)cc2OC)nc1 [Example 144] | 7.95 | 7.60 | 7.97 | – | – | – | –
31 | COc1cnc2c(Cc3cnc(OCc4cc5cnccn5n4)c(OC)c3)ccnc2c1 [Example 145] | 7.41 | 6.75 | 6.64 | – | – | – | –
32 | COc1ccc(COc2ncc(Cc3c(F)cnc4cc(OC)cnc34)cc2OC)nc1 [Example 146] | 6.68 | < 6.00 | < 6.00 | – | – | – | –
33 | COc1cnc2c(Cc3cnc(OCc4ccn5nccc5c4)c(OC)c3)ccnc2c1 [Example 147] | 8.10 | 7.10 | 7.22 | – | – | – | –
34 | COc1cnc2c(Cc3cnc(OCc4ccc5ccnn5c4)c(OC)c3)ccnc2c1 [Example 148] | 8.20 | 7.30 | 7.43 | – | – | – | –
35 | COc1cnc2c(Cc3cnc(OCc4cc5cccnc5[nH]4)c(OC)c3)ccnc2c1 [Example 149] | 8.41 | 7.04 | 7.21 | – | – | – | –
36 | COc1cnc2c(Cc3cc(OC)c4nc(N5CCC(OC)CC5)ncc4c3)ccnc2c1 [Example 150] | 6.02 | < 6.00 | < 6.00 | – | – | – | –
37 | COc1ccc(COc2ccc(Cc3ccnc4cc(OC)cnc34)cn2)nc1 [Example 151, 3-methoxy-8-((6-((5-methoxypyridin-2-yl)methoxy)pyridin-3-yl)methyl)-1,5-naphthyridine] | 7.65 | – | – | 412 nM | 280 nM | – | –
38 | COc1cnc2c(Cc3ccc4nc(N5CCC(OC)CC5)ncc4c3)ccnc2c1 [Example 152] | < 6.00 | < 6.00 | < 6.00 | – | – | – | –
39 | COc1cnc2c(Cc3ccc4nc([C@H]5CC[C@@H](OC)CC5)cnc4c3)ccnc2c1 [Example 154] | 7.54 | – | 6.48 | – | – | 6.70 | –
40 | COc1cnc2c(Cc3ccc4nc([C@H]5CC[C@@H](OC)CC5)cnc4c3)ccnc2c1 [Example 155] | 6.59 | – | – | – | – | < 6.00 | 6.22
41 | COc1cnc2c(Cc3ccc4nc(C5CCOCC5)cn4c3)ccnc2c1 [Example 156] | < 6.00 | < 6.00 | < 6.00 | – | – | – | –
42 | COc1cnc2c(Cc3ccc4nc(C5CCOCC5)cnc4c3)ccnc2c1 [Example 157] | 6.27 | < 6.00 | < 6.00 | – | – | – | –
43 | COc1cnc2c(Cc3ccn4nc(C5CCOCC5)cc4c3)ccnc2c1 [Example 158, 3-methoxy-8-((2-(tetrahydro-2H-pyran-4-yl)pyrazolo[1,5-a]pyridin-5-yl)methyl)-1,5-naphthyridine] | < 6.00 | < 6.00 | < 6.00 | – | – | – | –
